Biological target: recombinant human GST-Syk (Homo sapiens (Human), UniProt P43405)
Experiment: Homogeneous Time-Resolved Fluorescence (HTRF) assay for the recombinant human Syk enzyme
Assay type: biochemical
Settings: recombinant human GST-Syk 5 pM, ATP 25 μM; class symbols; read-out: rhSyk activity (IC50)
Method: Homogeneous Time-Resolved Fluorescence (HTRF) Assay for the Recombinant Human Syk Enzyme:
A recombinant GST-hSyk fusion protein was used to measure potency of compounds to inhibit human Syk activity. The recombinant human GST-Syk ([…] #08-176) (5 pM final concentration) was incubated with various concentrations of the inhibitor diluted in DMSO (0.1% final concentration) for 10 minutes at room temperature in 15 mM Tris-HCl (pH 7.5), 0.01% tween 20, 2 mM DTT in 384 well plate format. To initiate the reaction the biotinylated substrate peptide (250 nM final concentration) that contains the phosphorylation site for Syk was added with magnesium (5 mM final concentration) and ATP (25 μM final concentration). Final volume of the reaction was 10 μL. Phosphorylation of the peptide was allowed to proceed for 45 minutes at room temperature. To quench the reaction and detect the phosphorylated product, 2 nM of a Europium-anti-phosphotyrosine antibody (Perkin Elmer #AD0161) and 70 nM SA-APC (Perkin-Elmer #CR130-100) were added together in 15 mM Tris pH 7.5, 40 mM EDTA, 0.01% tween 20. Final volume of the quenching solution was 10 μL. The resulting HTRF signal was measured after 30 minutes on an EnVision (Perkin-Elmer) reader using a time-resolved fluorescence protocol.

| Compound | IC50 [nM] |
| --- | --- |
| Cc1cc(Nc2cc(C(F)(F)F)ccn2)nc(-c2cnc(C(C)(O)C3CCC(C(=O)O)C(C)C3)s2)c1 (single isomer, unassigned) [Example 15-2, 4-{1-hydroxy-1-[5-(4-methyl-6-{[4-(trifluoromethyl)pyridin-2-yl]amino}pyridin-2-yl)-1,3-thiazol-2-yl]ethyl}-2-methylcyclohexanecarboxylic acid] | ≤ 100 |
| Cc1cc(Nc2cc(C(F)(F)F)ccn2)nc(-c2cnc(C(C)(O)C3CCC(C(=O)O)C(C)C3)s2)c1 (single isomer, unassigned) [Example 15-3, 4-{1-hydroxy-1-[5-(4-methyl-6-{[4-(trifluoromethyl)pyridin-2-yl]amino}pyridin-2-yl)-1,3-thiazol-2-yl]ethyl}-2-methylcyclohexanecarboxylic acid] | ≤ 100 |
| Cc1cc(Nc2cc(C(F)(F)F)ccn2)nc(-c2cnc(C(C)(O)C3CCC(C(=O)O)C(C)C3)s2)c1 (single isomer, unassigned) [Example 15-4, 4-{1-hydroxy-1-[5-(4-methyl-6-{[4-(trifluoromethyl)pyridin-2-yl]amino}pyridin-2-yl)-1,3-thiazol-2-yl]ethyl}-2-methylcyclohexanecarboxylic acid] | ≤ 100 |
| Cc1cc(Nc2cc(C(F)(F)F)ccn2)nc(-c2cnc(C(C)(O)C3CCC(C(=O)O)C(C)C3)s2)c1 (single isomer, unassigned) [Example 15-5, 4-{1-hydroxy-1-[5-(4-methyl-6-{[4-(trifluoromethyl)pyridin-2-yl]amino}pyridin-2-yl)-1,3-thiazol-2-yl]ethyl}-2-methylcyclohexanecarboxylic acid] | ≤ 100 |
| Cc1cc(Nc2cc(C(F)(F)F)ccn2)nc(-c2cnc(C(C)(O)C3CCC(C(=O)O)C(C)C3)s2)c1 (single isomer, unassigned) [Example 15-6, 4-{1-hydroxy-1-[5-(4-methyl-6-{[4-(trifluoromethyl)pyridin-2-yl]amino}pyridin-2-yl)-1,3-thiazol-2-yl]ethyl}-2-methylcyclohexanecarboxylic acid] | ≤ 100 |
| Cc1cc(Nc2cc(C(F)(F)F)ccn2)nc(-c2cnc(C(C)(O)C3CCC(C(=O)O)C(C)C3)s2)c1 (single isomer, unassigned) [Example 15-7, 4-{1-hydroxy-1-[5-(4-methyl-6-{[4-(trifluoromethyl)pyridin-2-yl]amino}pyridin-2-yl)-1,3-thiazol-2-yl]ethyl}-2-methylcyclohexanecarboxylic acid] | ≤ 100 |
| Cc1cc(Nc2cc(C(F)(F)F)ccn2)nc(-c2cnc(C(C)(O)C3CCC(C(=O)O)C(C)C3)s2)c1 (single isomer, unassigned) [Example 15-8, 4-{1-hydroxy-1-[5-(4-methyl-6-{[4-(trifluoromethyl)pyridin-2-yl]amino}pyridin-2-yl)-1,3-thiazol-2-yl]ethyl}-2-methylcyclohexanecarboxylic acid] | ≤ 100 |
| Cc1cc(Nc2cc(C(F)(F)F)ccn2)nc(-c2cnc(C(C)(O)C3CCC(C(=O)O)C(C)C3)s2)c1 (single isomer, unassigned) [Example 15-9, 4-{1-hydroxy-1-[5-(4-methyl-6-{[4-(trifluoromethyl)pyridin-2-yl]amino}pyridin-2-yl)-1,3-thiazol-2-yl]ethyl}-2-methylcyclohexanecarboxylic acid] | ≤ 100 |
| Cc1cc(Nc2cc(C(F)(F)F)ccn2)nc(-c2cnc(C(C)(O)C3CCC(C(=O)O)C(C)C3)s2)c1 (single isomer, unassigned) [Example 15-10, 4-{1-hydroxy-1-[5-(4-methyl-6-{[4-(trifluoromethyl)pyridin-2-yl]amino}pyridin-2-yl)-1,3-thiazol-2-yl]ethyl}-2-methylcyclohexanecarboxylic acid] | ≤ 100 |
| Cc1cc(Nc2cc(C(F)(F)F)ccn2)nc(-c2cnc(C(C)(O)C3CCC(C(=O)O)C(C)C3)s2)c1 (single isomer, unassigned) [Example 15-11, 4-{1-hydroxy-1-[5-(4-methyl-6-{[4-(trifluoromethyl)pyridin-2-yl]amino}pyridin-2-yl)-1,3-thiazol-2-yl]ethyl}-2-methylcyclohexanecarboxylic acid] | ≤ 100 |
| Cc1cc(Nc2cc(C(F)(F)F)ccn2)nc(-c2cnc(C(C)(O)C3CCC(C(=O)O)C(C)C3)s2)c1 (single isomer, unassigned) [Example 15-12, 4-{1-hydroxy-1-[5-(4-methyl-6-{[4-(trifluoromethyl)pyridin-2-yl]amino}pyridin-2-yl)-1,3-thiazol-2-yl]ethyl}-2-methylcyclohexanecarboxylic acid] | ≤ 100 |
| Cc1cc(Nc2cc(C(F)(F)F)ccn2)nc(-c2cnc(C(C)(O)C3CCC(C(=O)O)C(C)C3)s2)c1 (single isomer, unassigned) [Example 15-13, 4-{1-hydroxy-1-[5-(4-methyl-6-{[4-(trifluoromethyl)pyridin-2-yl]amino}pyridin-2-yl)-1,3-thiazol-2-yl]ethyl}-2-methylcyclohexanecarboxylic acid] | ≤ 100 |
| Cc1cc(Nc2cc(C(F)(F)F)ccn2)nc(-c2cnc(C(C)(O)C3CCNC3)s2)c1 (centres unmarked) [Example 12, 1-[5-(4-Methyl-6-{[4-(trifluoromethyl)pyridin-2-yl]amino}pyridin-2-yl)-1,3-thiazol-2-yl]-1-(pyrrolidin-3-yl)ethanol] | ≤ 100 |
| Cc1cc(Nc2cc(C(F)(F)F)ccn2)nc(-c2cnc(C(C)(O)C3CCN(C(N)=O)C3)s2)c1 (centres unmarked) [Example 13, 3-{1-Hydroxy-1-[5-(4-methyl-6-{[4-(trifluoromethyl)pyridin-2-yl]amino}pyridin-2-yl)-1,3-thiazol-2-yl]ethyl}pyrrolidine-1-carboxamide] | ≤ 100 |
| Cc1cc(Nc2cc(C(F)(F)F)ccn2)nc(-c2cnc(C(C)(O)[C@@H]3CC[C@H](C(=O)O)C(C)(C)C3)s2)c1 (stereo partly drawn) [Example 14-30, (1S,4R)-4-{1-hydroxy-1-[5-(4-methyl-6-{[4-(trifluoromethyl)pyridin-2-yl]amino}pyridin-2-yl)-1,3-thiazol-2-yl]ethyl}-2,2-dimethylcyclohexanecarboxylic acid] | ≤ 100 |
| Cc1cc(Nc2cc(C(F)(F)F)ccn2)nc(-c2cnc(C(C)(O)[C@H]3CC[C@H](C(=O)O)C(C)(C)C3)s2)c1 (stereo partly drawn) [Example 14-31, (1S,4S)-4-{1-hydroxy-1-[5-(4-methyl-6-{[4-(trifluoromethyl)pyridin-2-yl]amino}pyridin-2-yl)-1,3-thiazol-2-yl]ethyl}-2,2-dimethylcyclohexanecarboxylic acid] | ≤ 100 |
| Cc1cc(Nc2cc(C(F)(F)F)ccn2)nc(-c2cnc(C(C)(O)[C@H]3CC[C@H](C(=O)O)C(C)(C)C3)s2)c1 (stereo partly drawn) [Example 14-32, (1S,4S)-4-{1-hydroxy-1-[5-(4-methyl-6-{[4-(trifluoromethyl)pyridin-2-yl]amino}pyridin-2-yl)-1,3-thiazol-2-yl]ethyl}-2,2-dimethylcyclohexanecarboxylic acid] | ≤ 100 |
| Cc1ccnc(Nc2cc(C)cc(-c3cnc(C(C)(O)[C@H]4CC[C@H](C(=O)O)C(C)(C)C4)s3)n2)c1 (stereo partly drawn) [Example 14-33, (1S,4S)-4-[1-hydroxy-1-(5-{4-methyl-6-[(4-methylpyridin-2-yl)amino]pyridin-2-yl}-1,3-thiazol-2-yl)ethyl]-2,2-dimethylcyclohexanecarboxylic acid] | ≤ 100 |
| Cc1ccnc(Nc2cc(C)cc(-c3cnc(C(C)(O)[C@H]4CC[C@H](C(=O)O)C(C)(C)C4)s3)n2)c1 (stereo partly drawn) [Example 14-34, (1S,4S)-4-[1-hydroxy-1-(5-{4-methyl-6-[(4-methylpyridin-2-yl)amino]pyridin-2-yl}-1,3-thiazol-2-yl)ethyl]-2,2-dimethylcyclohexanecarboxylic acid] | ≤ 100 |
| COc1ccnc(Nc2cc(C)cc(-c3cnc(C(C)(O)[C@H]4CC[C@H](C(=O)O)C(C)(C)C4)s3)n2)c1 (stereo partly drawn) [Example 14-35, (1S,4S)-4-[1-hydroxy-1-(5-{6-[(4-methoxypyridin-2-yl)amino]-4-methylpyridin-2-yl}-1,3-thiazol-2-yl)ethyl]-2,2-dimethylcyclohexanecarboxylic acid] | ≤ 100 |
| COc1ccnc(Nc2cc(C)cc(-c3cnc(C(C)(O)[C@H]4CC[C@H](C(=O)O)C(C)(C)C4)s3)n2)c1 (stereo partly drawn) [Example 14-36, (1S,4S)-4-[1-hydroxy-1-(5-{6-[(4-methoxypyridin-2-yl)amino]-4-methylpyridin-2-yl}-1,3-thiazol-2-yl)ethyl]-2,2-dimethylcyclohexanecarboxylic acid] | ≤ 100 |
| Cc1cc(Nc2cc(C(F)F)ccn2)nc(-c2cnc(C(C)(O)[C@H]3CC[C@H](C(=O)O)C(C)(C)C3)s2)c1 (stereo partly drawn) [Example 14-37, (1S,4S)-4-{1-[5-(6-{[4-(difluoromethyl)pyridin-2-yl]amino}-4-methylpyridin-2-yl)-1,3-thiazol-2-yl]-1-hydroxyethyl}-2,2-dimethylcyclohexanecarboxylic acid] | ≤ 100 |
| Cc1cc(Nc2cc(C(F)F)ccn2)nc(-c2cnc(C(C)(O)[C@H]3CC[C@H](C(=O)O)C(C)(C)C3)s2)c1 (stereo partly drawn) [Example 14-38, (1S,4S)-4-{1-[5-(6-{[4-(difluoromethyl)pyridin-2-yl]amino}-4-methylpyridin-2-yl)-1,3-thiazol-2-yl]-1-hydroxyethyl}-2,2-dimethylcyclohexanecarboxylic acid] | ≤ 100 |

Source: patent publication US9120785B2, “Pyridyl aminopyridines as Syk inhibitors” (Merck Sharp & Dohme Corp., priority 2011, dated 2015)
